Source: PubChem BioAssay AID742 (SRMLSC, 2007)
The source made the active and inactive calls. No rule for the calls is given here.

What was measured:
[1] = Her2 expression suppression with viability readout – cell-based, AlphaScreen, CellTiter-Glo viability, dose response (AID 742); settings: human cells, Her2 expression AlphaScreen; CTG viability; at 9.62 µM (top of the series)
[2] = test system: human cells, Her2 expression AlphaScreen; CTG viability; test: as above; settings: viability, CellTiter-Glo

| SMILES | Her2 inhibition [1] | EC50 [2] [µM] |
| --- | --- | --- |
| CSc1ccc2c(c1)N(CCC1CCCCN1C)c1ccccc1S2 (stereo not drawn) | -45.6% (inactive) | > 9.62 |
| Cc1ccc(-n2nc(C)c3c2OC(N)=C(C#N)C3c2ccc(F)cc2)cc1 (stereo not drawn) | -1.17% (inactive) | > 9.62 |
| CC(=O)Nc1cccc(NC(=O)c2c(-c3ccccc3Cl)noc2C)c1 | -14.7% (inactive) | > 9.62 |
| Cc1ccc(S(=O)(=O)N2CCC(C(=O)N[C@@H](C)C(=O)NCCc3ccccc3)CC2)cc1 | -5.1% (inactive) | > 9.62 |
| O=C(c1n[nH]c(=O)c2ccccc12)N1CCN(c2ccccc2)CC1 | -18.2% (inactive) | > 9.62 |
| CC(C)C(=O)N(Cc1cc2ccccc2[nH]c1=O)C(C)(C)C | -2.53% (inactive) | > 9.62 |
| CCCn1c(Nc2nc3ccccc3n2C)nc2ccccc21 | -10.1% (inactive) | > 9.62 |
| C=CCc1cccc2cc(C(=O)NC)c(=O)oc12 | 3.58% (inactive) | > 9.62 |
| c1cnc(-c2nnc3n2CCCCC3)cn1 | 5.42% (inactive) | > 9.62 |
| C/C(=N\O)C(=O)C(CN1CCCCC1)CN1CCCCC1 | 15.2% (inactive) | > 9.62 |
| Cc1nc2cc(S(=O)(=O)C(F)(F)F)ccc2s1 | -23.9% (inactive) | > 9.62 |
| Cc1cccc(C)c1NC1=NCCCS1 | 6.69% (inactive) | > 9.62 |
| Cc1nnc(SCc2nnc(-c3ccccc3Br)o2)n1-c1ccccc1 | -17.1% (inactive) | > 9.62 |
| Oc1ccc2ccccc2c1C=NCc1cn2ccsc2n1 | -11.2% (inactive) | > 9.62 |
| CCOC(=O)c1ccc(N=c2sc(C(=O)OC)cc(=O)n2Cc2ccco2)cc1 | -0.92% (inactive) | > 9.62 |
| CCCn1c(SCC(=O)Nc2cccc(C)n2)nnc1-c1ccco1 | -2.69% (inactive) | > 9.62 |
| Nc1c(S(=O)(=O)c2cccc(Cl)c2)c2nc3ccccc3nc2n1/N=C/c1ccc(O)c(O)c1 | 11.2% (inactive) | > 9.62 |
| CCCCC(CC)Cn1c2nc3ccccc3nc2c2c(=N)oc(C)nc21 (stereo not drawn) | -5.07% (inactive) | > 9.62 |
| Cc1ccc(/C=C/C2=Cc3c(sc(NC(=O)CSc4n[nH]c(N)n4)c3C#N)C(C)(C)C2)o1 | -0.68% (inactive) | > 9.62 |
| CCN(CC(=O)NC1CCCCCC1)S(=O)(=O)c1ccccc1 | -2.97% (inactive) | > 9.62 |
| C=C(C)COc1ccc(-c2n[nH]c(C)c2Oc2ccccc2OC)c(O)c1 | -8.71% (inactive) | > 9.62 |
| C=C(C)COc1ccc(-c2n[nH]c(C)c2-c2ccccc2)c(O)c1 | -3.91% (inactive) | > 9.62 |
| CCc1nc(N)c(C#N)c(-c2cccnc2)c1C | 2.53% (inactive) | > 9.62 |
| CCCCn1c(O)c(C(C)=NCCN2CCCCC2)c(=O)[nH]c1=O | -17.4% (inactive) | > 9.62 |
| CCCCCNC(=O)C(C#N)c1nc2ccccc2nc1N1CCCC1 (stereo not drawn) | -19% (inactive) | > 9.62 |
| O=C(O)c1ccc2c3c(ncnc13)-c1ccccc1C2=O | -3.54% (inactive) | > 9.62 |
| CCCOc1ccc(C(=O)CCN2CCCCC2)cc1 | -16.8% (inactive) | > 9.62 |

| SMILES | Her2 inhibition [1] | EC50 [2] [µM] |
| --- | --- | --- |
| CCc1ccc(-c2nc(CN3CCC(C(=O)N4CCN(c5ccccc5)CC4)CC3)c(C)o2)cc1 | -74% (inactive) | > 9.62 |
| S=C1SCN(CCN2CCOCC2)CN1Cc1ccccc1 | -20.1% (inactive) | > 9.62 |
| Cc1cc(-c2nnc3n2N=C(c2ccc(-c4ccccc4)cc2)CS3)n[nH]1 | -21.4% (inactive) | > 9.62 |
| COCCCN1C(=O)C(O)=C(C(C)=O)C1c1cccc(F)c1 (stereo not drawn) | -2.16% (inactive) | > 9.62 |
| CS(=O)(=O)c1ccc(Cl)c(NC(=O)COC(=O)CNC(=O)c2ccc(Br)o2)c1 | 5.14% (inactive) | > 9.62 |
| N#C/C(=C/c1ccc(N2CCCCCC2)o1)c1ccc(F)cc1 | 4.22% (inactive) | > 9.62 |
| C=CCN=C(NC#N)SCc1ccccc1Cl | 0.27% (inactive) | > 9.62 |
| Cc1ccc(S(=O)(=O)CCC(=O)c2ccc(O)cc2O)cc1 | 1.34% (inactive) | > 9.62 |
| CCCS(=O)(=O)N1CCC(C(=O)N2CCC(Cc3ccccc3)CC2)CC1 | -12.4% (inactive) | > 9.62 |
| O=S(=O)(CCN1CCN(C(c2ccccc2)c2ccccc2)CC1)C(F)(F)F | -1.03% (inactive) | > 9.62 |
| CC(=N\O)/C(CN(C)C)=N/O | -15.9% (inactive) | > 9.62 |
| CCOc1ccc(-c2[nH]ncc2Oc2ccccc2OCC)c(O)c1 | 1.97% (inactive) | > 9.62 |
| O=C(Oc1ccc2c(c1)OCO2)c1cc2c(s1)CCC2 | 41.1% (inactive) | > 9.62 |
| Oc1cccc2ccc(Nc3ccccn3)nc12 | 31.3% (inactive) | > 9.62 |
| Cc1c(-c2cccs2)[n+](=O)c2c(n1[O-])CCCC2 | -49% (inactive) | > 9.62 |
| CCCCn1c(SCc2c(C)noc2C)nc2cc(S(N)(=O)=O)ccc21 | -2.2% (inactive) | > 9.62 |
| CCCCCn1c(CN2CCCCC2CC)nc2c1c(=O)n(C)c(=O)n2C (stereo not drawn) | -28.1% (inactive) | > 9.62 |
| OC(CCN1CCCC1)(c1ccccc1)C1CCCCC1 (stereo not drawn) | -24.9% (inactive) | > 9.62 |
| N#CC(C#N)=c1ccc2c(c1)N1C3=C(CCCC3)CC3CCCCC31N=2 (stereo not drawn) | 24.3% (inactive) | > 9.62 |
| N#CC(C#N)=c1ccc2c(c1)NC1(CCCCC1)N=2 | 43.8% (inactive) | > 9.62 |
| CC(C)(C)OC(=O)NCCc1nnc(S(=O)(=O)Cc2ccc(Cl)cc2Cl)o1 | -15.5% (inactive) | > 9.62 |
| CCN(CC(=O)NCc1cccs1)c1nnnn1-c1ccccc1 | -22.3% (inactive) | > 9.62 |
| Cc1[nH]nc2c1C(C1CC=CCC1)C(C#N)=C(N)O2 (stereo not drawn) | -29.3% (inactive) | > 9.62 |
| N=c1n(CCO)c2ccccc2n1CCOc1ccc(Cl)cc1Cl | -2.09% (inactive) | > 9.62 |
| Clc1ccc(-n2nnnc2Sc2ncnc3sccc23)cc1 | -1.39% (inactive) | > 9.62 |
| Cc1cc(NC(=O)CNC(=O)C2CCCCC2)no1 | 12.1% (inactive) | > 9.62 |
| Cc1cccc(Nc2nc(-c3ccccn3)cs2)n1 | 0.46% (inactive) | > 9.62 |

| SMILES | Her2 inhibition [1] | EC50 [2] [µM] |
| --- | --- | --- |
| COc1cccc(N2CCN(c3ncnc4c3[nH]c3ccc(F)cc34)CC2C)c1 (stereo not drawn) | -42.1% (inactive) | < 0.024 |
| CC(C)(C)NC(=O)CSc1ncnc2c1nnn2Cc1ccccc1Cl | -10.2% (inactive) | > 9.62 |
| Clc1ccc(COC(Cn2ccnc2)c2ccc(Cl)cc2Cl)cc1 (stereo not drawn) | 1.73% (inactive) | > 9.62 |
| N#CC1=C2SCN(c3ccccc3)CN2C(=O)CC1c1cccs1 (stereo not drawn) | -27.6% (inactive) | > 9.62 |
| COc1ccc2oc(=O)c(-c3nnc(NCc4ccco4)s3)cc2c1 | -2.67% (inactive) | > 9.62 |
| CCn1c(SCC(=O)C(C)(C)C)nnc1-c1cnccn1 | 2.82% (inactive) | > 9.62 |
| CCOc1ccc(NC(=O)C/C(N)=N/O)cc1 | -1.78% (inactive) | > 9.62 |
| COCc1cc(C)nc(Nc2ccc(C)c(C)c2)c1C#N | 20.5% (inactive) | > 9.62 |
| CCN(CCNC(=O)C1CCN(Cc2nc(-c3cccc(Cl)c3)oc2C)CC1)c1ccccc1 | -54.8% (inactive) | > 9.62 |
| Cc1nn(C)c(C)c1Sc1ccc(Br)cc1 | -6.9% (inactive) | > 9.62 |
| CCc1ccc(C2CC(=O)N3CN(c4ccccc4)CSC3=C2C#N)cc1 (stereo not drawn) | 21.4% (inactive) | > 9.62 |
| CN1CCN(c2ccc(C(N)=O)cc2N)CC1 | -16.8% (inactive) | > 9.62 |
| COc1cc(NS(=O)(=O)c2ccc(C)cc2)c2ncccc2c1 | 18.5% (inactive) | > 9.62 |
| N#C/C(C(N)=O)=c1/ccc2c(c1)N1C3=C(CCCC3)CC3CCCCC31N=2 (stereo not drawn) | 4.75% (inactive) | > 9.62 |
| CS(=O)(=O)c1ncc(Cl)c(C(=O)Nc2ccc(N3CCOCC3)cc2)n1 | 19.8% (inactive) | > 9.62 |
| O=S(=O)(CCSc1ccccn1)c1nc2ccccc2s1 | 12.7% (inactive) | > 9.62 |
| Cc1cc(NC(=O)CCCS(=O)(=O)c2nc(-c3cccs3)cc(C(F)(F)F)n2)no1 | 18.9% (inactive) | > 9.62 |
| C[C@H]1CCC[C@H](O)CCCCCc2cc(O)cc(O)c2C(=O)O1 | 3.17% (inactive) | > 9.62 |
| CC1CN=C(N(C(=O)Nc2ccccc2)c2ccc(S(=O)(=O)N3CCOCC3)cc2)S1 (stereo not drawn) | -5.35% (inactive) | > 9.62 |
| COc1ccccc1-c1cc(C(F)(F)F)nc(S(=O)(=O)CCCC(=O)NC(C)C)n1 | 5% (inactive) | > 9.62 |
| COC(=O)CSc1cc(SCC(=O)OC)c(C#N)c(SCC(=O)OC)c1 | 6.74% (inactive) | > 9.62 |
| Cc1ccccc1-c1nc(CN2CCC(C(=O)NCCC3=CCCCC3)CC2)c(C)o1 | -53.7% (inactive) | > 9.62 |
| Cc1cc2nnc(SC(C)C#N)n2c2ccccc12 (stereo not drawn) | -10.1% (inactive) | > 9.62 |
| Cc1c(NC(=O)c2coc(=O)c(Br)c2)c(=O)n(-c2ccccc2)n1C | 7.39% (inactive) | > 9.62 |
| CC(C)(C)c1cc(C(c2cccnc2)N2CCN(CCO)CC2)cc(C(C)(C)C)c1O (stereo not drawn) | 7.24% (inactive) | > 9.62 |
